Source: patent US20230321023A1, “APPLICATION OF REGULATION OF EYE SCLERA LIPID METABOLISM TO INHIBIT MYOPIA” (Wenzhou Medical University, priority 2020, published 2023)

Legend:
FD myopia [1] = experiment: FD myopia in guinea pigs, peribulbar injection of DHA, EPA or atropine; type: in vivo, guinea pig; settings: 2 weeks; for reduction of myopia progression vs Vehicle group: high dose 3.0 μg/day
Protocol: (§1) The test animals were British tricolored short-haired guinea pigs aged 3 weeks. The animals were subjected to monocular form deprivation (FD) by a mask method and were randomly divided into 6 groups, which were treated by peribulbar injection with the following different substances: (1) ethanol solvent group (Vehicle); (2) low-dose DHA group (1.0 μg); (3) high-dose DHA group (3.0 μg): (4) low-dose EPA group (1.0 μg); (5) high-dose EPA group (3.0 μg); and (6) 0.1% atropine group.
The measurement methods of refraction, vitreous chamber depth and eye axis length were the same as those in Example 2.

[2] = Safety test, peribulbar injection of DHA; type: in vivo, guinea pig; settings: peribulbar DHA alone, up to 3 μg/day, vs Vehicle control
Protocol: as §1

[3] = Allergy study, periocular injection in FD animals; type: in vivo; settings: high-purity DHA 3.0 μg or DHA 3.0 μg+EPA 3.0 μg, 100 μL daily periocular, 2 weeks
Protocol: Animals were randomly divided into three groups: FD+cod liver oil (commercially available ω-3 polyunsaturated fatty acids) group; FD+high-purity drug group 1 (FD+DHA 3.0 μg); and FD+high-purity drug group 2 (FD+“DHA 3.0 μg+EPA 3.0 μg”), and both high-purity drug groups were at a high dose.
After applying a topical anesthetic (one drop of 0.5% propazocaine hydrochloride, Alcon Laboratories, Inc., Puurs, Belgium), 100 μL of drug was daily administered at the surrounding area of FD eyeballs at 9:00 a.m., continuing for 2 weeks. All injections were completed within 10 seconds under dark red light to minimize any possible impact of red light on induced myopic recovery.

FD myopia [4] = experiment: Optimal treatment scheme: peribulbar DHA/EPA formulations in young guinea pig models with FD myopia; type: in vivo; set-up: Vitreous chamber depth (difference between experimental eye and fellow eye): unit not given here; settings: FD guinea pigs, total mass 3 μg; for Eye axis length (difference between experimental eye and fellow eye): in mm (unit assumed); for Myopia inhibition rate: 1 W vs Veh
Source text: The optimal treatment protocol or scheme applying ω-3 by means by of feeding and peribulbar injection were investigated, respectively, and some critical findings were shown, especially when the eye was subjected to topical administration, unexpected results were obtained by using DHA alone or a composition of DHA and EPA. The basic experimental procedures were as described above.
However, as the content of EPA increases to become the predominant component (i.e., DHA:EPA<1:1), the efficacy of the mixture of DHA and EPA (the total mass of ocular topical administration is 3 μg in each case) is even better than that of DHA alone, EPA alone, or a mixture of DHA and EPA containing DHA as the main component (i.e., DHA:EPA>1:1, for example, […]) and is statistically significant (Table 1 and FIG. 12). It can be seen that the mixture of DHA and EPA that uses EPA as the predominant component or the predominant active ingredient has the optimal inhibition effect of myopia and myopia-related symptoms. Overall, all the treatment protocols in this example are very effective in inhibiting the negative refraction, eye axis elongation, and vitreous cavity depth increase.

| Structure (SMILES) | reduced myopia rate (positive control) (FD myopia [1]; 0.1% atropine) [%] | reduction of myopia progression vs Vehicle group (FD myopia [1]) [%] | ACD (anterior chamber depth) [2] | LT (lens thickness) [2] | body weight [2] | adverse reactions such as allergies [3] | Refraction (difference between experimental eye and fellow eye) (FD myopia [4]; 0 W) | Vitreous chamber depth (difference between experimental eye and fellow eye) (FD myopia [4]; 0 W) | Eye axis length (difference between experimental eye and fellow eye) (FD myopia [4]; 0 W) | Myopia inhibition rate (FD myopia [4]) [%] | Refraction (difference between experimental eye and fellow eye) (FD myopia [4]; 1 W) | Vitreous chamber depth (difference between experimental eye and fellow eye) (FD myopia [4]; 1 W) | Eye axis length (difference between experimental eye and fellow eye) (FD myopia [4]; 1 W) |
| --- | --- | --- | --- | --- | --- | --- | --- | --- | --- | --- | --- | --- | --- |
| CN1[C@@H]2CC[C@H]1C[C@@H](OC(=O)C(CO)c1ccccc1)C2 (stereo partly drawn) [Atropine, atropine, reference compound] | 35.6 |  |  |  |  |  |  |  |  |  |  |  |  |
| CC/C=C\C/C=C\C/C=C\C/C=C\C/C=C\C/C=C\CCC(=O)O [DHA, docosahexaenoic acid] |  | 35.3 | no significant ocular differences | no significant ocular differences | no significant ocular differences | no adverse reactions such as allergies | −0.23 | 0.00 | −0.01 | 31.8 | −2.95 | 0.06 | 0.06 |
| CC/C=C\C/C=C\C/C=C\C/C=C\C/C=C\CCCC(=O)O [EPA, eicosapentaenoic acid] |  | 29.6 |  |  |  |  | −0.40 | 0.00 | 0.01 | 21.0 | −3.42 | 0.07 | 0.07 |
